{
  "source": "paper PMC5356695",
  "about": "“A phase 1 study of oral ridaforolimus in pediatric patients with advanced solid tumors” (Oncotarget, 2016)",
  "key": {"[1]": {"system": "adults with advanced solid tumors", "conditions": "cited from earlier work"}, "[2]": {"system": "advanced soft tissue and bone sarcomas", "conditions": "cited from earlier work"}, "[3]": {"system": "heavily pretreated solid tumors", "parameters": "method as in PMID 23659969", "conditions": "cited from earlier work"}, "clinical": {"test": "clinical", "conditions": "for AUC(0-t) / half-life / concentration at 4 h / concentration at 8 h: human, whole blood", "method": "Whole blood samples (2 mL each) for pharmacokinetic analyses were collected at the following time points: <5 minutes before dosing on days 1 through 5 and at 0.5, 1, 2, 4, 8, 24, and 72 hours after drug administration on day 5 of the first week of the first treatment cycle. Blood concentrations of ridaforolimus were determined using a validated liquid chromatography/tandem mass spectrometry assay as in previous ridaforolimus studies (Charles River Laboratories, Shrewsbury, MA). The pharmacokinetic parameters of AUC0–24h and elimination half-life (t1/2) were determined by noncompartmental modeling using WinNonlin software (Pharsight, Certara, Princeton, NJ)."}, "[4]": {"conditions": "7 pediatric patients aged 13 to 17 years"}},
  "note": "Where two headings read alike, the source gives them in different places.",
  "data": [
    {"compound": "CO[C@H]1C[C@@H]2CC[C@@H](C)[C@@](O)(O2)C(=O)C(=O)N2CCCC[C@H]2C(=O)O[C@H]([C@H](C)C[C@@H]2CC[C@@H](OP(C)(C)=O)[C@H](OC)C2)CC(=O)[C@H](C)/C=C(\\C)[C@@H](O)[C@@H](OC)C(=O)[C@H](C)C[C@H](C)/C=C/C=C/C=C/1C", "note": "[ridaforolimus]", "values": [
      {"measurement": "MTD", "setting": "[1]; intravenous", "result": 18.75, "unit": "mg/day"},
      {"measurement": "Adult RP2D", "setting": "[1]; oral, once daily for 5 days per week", "result": 40, "unit": "mg"},
      {"measurement": "MTD", "setting": "[1]; oral, once daily × 5 days per week regimen", "result": 40, "unit": "mg"},
      {"measurement": "Patients with partial response", "setting": "[2]; [4]", "result": 1},
      {"measurement": "Patients with progressive disease", "setting": "[2]; [4]", "result": 2},
      {"measurement": "Patients with stable disease", "setting": "[2]; [4]", "result": 4},
      {"measurement": "Reduction of risk of progression or death compared with placebo", "setting": "[2]; oral, after benefit from preceding chemotherapy", "result": 28, "unit": "%"},
      {"measurement": "Stable disease in patients with central nervous system tumors", "setting": "[3]; intravenous 8-16 mg/m^2", "result": "4 of 6"},
      {"measurement": "Stable disease in patients with sarcomas", "setting": "[3]; intravenous 8-16 mg/m^2", "result": "2 of 8"},
      {"measurement": "Patients with stable disease / clinical benefit", "setting": "[3]; intravenous 8-16 mg/m^2 daily for 5 consecutive days every other week, of 15 evaluable (40%)", "result": 6, "unit": "patients"},
      {"measurement": "DLTs", "setting": "[3]; intravenous 8–16 mg/m^2 daily for 5 consecutive days every other week", "result": "no DLTs were observed"},
      {"measurement": "Exposure (day 5 AUC0–24h) higher than adult target level", "setting": "clinical; 28 mg/m^2 vs adult RP2D 40 mg (1,739 h•ng/mL)", "result": "approximately 34%"},
      {"measurement": "BSADN AUC, lower bound of 90% 1-sided confidence interval for geometric mean", "setting": "clinical; 33 mg/m^2", "result": "61.2 h•ng•m^2/(mL•mg)"},
      {"measurement": "C4h, lower bound of 90% 1-sided confidence interval for geometric mean", "setting": "clinical; 33 mg/m^2", "result": 154, "unit": "ng/mL"},
      {"measurement": "C8h, lower bound of 90% 1-sided confidence interval for geometric mean", "setting": "clinical; 33 mg/m^2", "result": 100, "unit": "ng/mL"},
      {"measurement": "Day 5 AUC0–24h, lower bound of 90% 1-sided confidence interval for geometric mean", "setting": "clinical; 33 mg/m^2", "result": "2,020 h•ng/mL"},
      {"measurement": "t1/2, lower bound of 90% 1-sided confidence interval for geometric mean", "setting": "clinical; 33 mg/m^2", "result": 23.0, "unit": "h"},
      {"measurement": "BSADN AUC (AUC normalized by BSA-adjusted dose), geometric mean", "setting": "clinical; 33 mg/m^2, n = 11", "result": "69.8 h•ng•m^2/(mL•mg)"},
      {"measurement": "Exposure (day 5 AUC0–24h) higher than adult target level", "setting": "clinical; 33 mg/m^2 vs adult RP2D 40 mg (1,739 h•ng/mL)", "result": "~31", "unit": "%"},
      {"measurement": "AUC(0-t)", "setting": "clinical; oral, 22 mg/m2", "result": 1340, "unit": "ng·h/mL"},
      {"measurement": "half-life", "setting": "clinical; oral, 22 mg/m2, t1/2, arithmetic mean (SD), 22 mg/m^2, n = 3", "result": 25.5, "unit": "h"},
      {"measurement": "half-life", "setting": "clinical; oral, 22 mg/m2, t1/2, geometric mean (CV%), 22 mg/m^2, n = 3", "result": 25.5, "unit": "h"},
      {"measurement": "half-life", "setting": "clinical; oral, 22 mg/m2, t1/2, median (range), 22 mg/m^2, n = 3", "result": 24.5, "unit": "h"},
      {"measurement": "concentration at 4 h", "setting": "clinical; oral, 22 mg/m^2, C4h, arithmetic mean (SD), day 5, 22 mg/m^2, n = 4", "result": 139, "unit": "ng/mL"},
      {"measurement": "concentration at 4 h", "setting": "clinical; oral, 22 mg/m^2, C4h, geometric mean (CV%), day 5, 22 mg/m^2, n = 4", "result": 131, "unit": "ng/mL"},
      {"measurement": "concentration at 8 h", "setting": "clinical; oral, 22 mg/m^2, C8h, arithmetic mean (SD), day 5, 22 mg/m^2, n = 4", "result": 74, "unit": "ng/mL"},
      {"measurement": "concentration at 8 h", "setting": "clinical; oral, 22 mg/m^2, C8h, geometric mean (CV%), day 5, 22 mg/m^2, n = 4", "result": 71, "unit": "ng/mL"},
      {"measurement": "AUC(0-t)", "setting": "clinical; oral, 28 mg/m2", "result": 2330, "unit": "ng·h/mL"},
      {"measurement": "half-life", "setting": "clinical; oral, 28 mg/m2, t1/2, arithmetic mean (SD), 28 mg/m^2, n = 3", "result": 28.2, "unit": "h"},
      {"measurement": "half-life", "setting": "clinical; oral, 28 mg/m2, t1/2, geometric mean (CV%), 28 mg/m^2, n = 3", "result": 27.2, "unit": "h"},
      {"measurement": "half-life", "setting": "clinical; oral, 28 mg/m2, t1/2, median (range), 28 mg/m^2, n = 3", "result": 26.5, "unit": "h"},
      {"measurement": "concentration at 4 h", "setting": "clinical; oral, 28 mg/m^2, C4h, arithmetic mean (SD), day 5, 28 mg/m^2, n = 3", "result": 228, "unit": "ng/mL"},
      {"measurement": "concentration at 4 h", "setting": "clinical; oral, 28 mg/m^2, C4h, geometric mean (CV%), day 5, 28 mg/m^2, n = 3", "result": 227, "unit": "ng/mL"},
      {"measurement": "concentration at 8 h", "setting": "clinical; oral, 28 mg/m^2, C8h, arithmetic mean (SD), day 5, 28 mg/m^2, n = 3", "result": 119, "unit": "ng/mL"},
      {"measurement": "concentration at 8 h", "setting": "clinical; oral, 28 mg/m^2, C8h, geometric mean (CV%), day 5, 28 mg/m^2, n = 3", "result": 116, "unit": "ng/mL"},
      {"measurement": "AUC(0-t)", "setting": "clinical; oral, 33 mg/m2", "result": 2280, "unit": "ng·h/mL"},
      {"measurement": "half-life", "setting": "clinical; oral, 33 mg/m2, t1/2, arithmetic mean (SD), 33 mg/m^2, n = 9", "result": 26.9, "unit": "h"},
      {"measurement": "half-life", "setting": "clinical; oral, 33 mg/m2, t1/2, geometric mean (CV%), 33 mg/m^2, n = 9", "result": 26, "unit": "h"},
      {"measurement": "half-life", "setting": "clinical; oral, 33 mg/m2, t1/2, median (range), 33 mg/m^2, n = 9", "result": 24.9, "unit": "h"},
      {"measurement": "concentration at 4 h", "setting": "clinical; oral, 33 mg/m^2, C4h, arithmetic mean (SD), day 5, 33 mg/m^2, n = 11", "result": 200, "unit": "ng/mL"},
      {"measurement": "concentration at 4 h", "setting": "clinical; oral, 33 mg/m^2, C4h, geometric mean (CV%), day 5, 33 mg/m^2, n = 11", "result": 184, "unit": "ng/mL"},
      {"measurement": "concentration at 8 h", "setting": "clinical; oral, 33 mg/m^2, C8h, arithmetic mean (SD), day 5, 33 mg/m^2, n = 12", "result": 118, "unit": "ng/mL"},
      {"measurement": "concentration at 8 h", "setting": "clinical; oral, 33 mg/m^2, C8h, geometric mean (CV%), day 5, 33 mg/m^2, n = 12", "result": 113, "unit": "ng/mL"},
      {"measurement": "half-life", "setting": "clinical; oral, Mean (geometric) elimination half-lives, independent of dose level", "result": "26 to 27", "unit": "h"},
      {"measurement": "Steady state from trough concentrations (predose days 1 through 5)", "setting": "clinical; oral once daily", "result": "steady-state concentrations had been achieved at day 5"},
      {"measurement": "Lag before absorption after dosing", "setting": "clinical; oral, all dose levels", "result": "approximately 2 hours"},
      {"measurement": "Time of highest blood concentrations after dosing", "setting": "clinical; oral, all dose levels", "result": "~4", "unit": "h"}
    ]}
  ]
}
